# Measured values reported in US8653233B2, “Compositions and methods for preventing or treating cancer” (University of Nebraska Medical Center, priority 2003, dated 2014).
# Where no end group is shown, it is not given here.
# Tested on: Panc02.MUC1 tumor cells
# Assay: MUC1 cytoplasmic tail peptide vaccination and Panc02.MUC1 tumor challenge
sequence,measurement,setting,value
CQCRRKNYGQLDIFPARDTYHPMSEYPTYH (cysteine pairing not given here) [SEQ ID NO:47],survival,"MUC1.Tg mice, three s.c. vaccinations at seven day intervals, Panc02.MUC1 challenge 10 days after final, vs control peptide or nonvaccinated, p<0.05",significant increase in survival
same,autoimmunity in organs,"necropsy and histology, vaccinated MUC1.Tg mice challenged with Panc02.MUC1",no evidence of autoimmunity
